Data taken from US20250002476A1, “AZOLE COMPOUNDS FOR CONTROLLING INVERTEBRATE PESTS” (FMC Corporation, priority 2021, published 2025).

How the values were obtained:
Assay type in all cases: in vivo
[1] = tested on: Neotropical Brown Stink Bug (Euschistus heros (Fab)); experiment: Test H: control of Neotropical Brown Stink Bug on sprayed green bean pieces; conditions: sprayed at 250 ppm; 3rd instar nymphs; 5 days
Description: (§1) Test compounds were formulated using a solution containing 10% acetone, 90% water and 300 ppm Activator 90@ non-ionic surfactant (Loveland Products, Loveland, Colorado, USA). The formulated compounds were applied in 1 mL of liquid through an atomized nozzle positioned 1.27 cm (0.5 inches) above the top of each test unit. Test compounds were sprayed at the rates indicated, and each test was replicated three times.
For evaluating control of Neotropical Brown Stink Bug (Euschistus heros (Fab)) through contact and/or systemic means, the test unit consisted of a petri dish with two, ˜2 cm pieces of green bean inside.
Test compounds were formulated and sprayed at 250, 50 and 10 ppm. After spraying of the formulated test compound, the test units were allowed to dry for 1 h before they were post-infested with 10 3rd instar nymphs. A fine mesh screen was secured to the petri dish, the test units were held for 5 days in a growth chamber at 28° C. and 65% relative humidity. Each test unit was then visually assessed for insect mortality after five days.

[2] = tested on: Green Peach Aphid (Myzus persicae (Sulzer)); experiment: Test D: control of Green Peach Aphid on sprayed radish plant; conditions: 144 h, pre-infested, 6 days; for mortality at 250 ppm: sprayed at 250 ppm; for mortality at 50 ppm: sprayed at 50 ppm
Description: as §1
For evaluating control of Green Peach Aphid (Myzus persicae (Sulzer)) through contact and/or systemic means, the test unit consisted of a small open container with a 12-15-day-old radish plant inside. Prior to compound application, each test unit was pre-infested by placing on a leaf of the test plant 30-40 aphids on a piece of leaf excised from a culture plant (cut-leaf method). The aphids moved onto the test plant as the leaf piece desiccated. After pre-infestation, the soil of the test unit was covered with a layer of sand.
Test compounds were formulated and sprayed at 250 and 50 ppm. After spraying of the formulated test compound, each test unit was allowed to dry for 1 hour and then a black, screened cap was placed on top. The test units were held for 6 days in a growth chamber at 19-21° C. and 50-70% relative humidity. Each test unit was then visually assessed for insect mortality.

[3] = tested on: silverleaf whitefly (Bemisia argentifolii (Bellows and Perring)); experiment: Test F: control of silverleaf whitefly on sprayed soybean plant; conditions: 288 h, pre-infested (oviposition), 12 days; for mortality at 250 ppm: sprayed at 250 ppm; for mortality at 50 ppm: sprayed at 50 ppm
Description: as §1
For evaluating control of silverleaf whitefly (Bemisia argentifolii (Bellows and Perring)) through contact and/or systemic means, each test unit consisted of a small open container with a 5-7 day old soybean plant inside. This was pre-infested by placing test units into cages containing adult whiteflies so that oviposition on the leaves could occur. The adults were removed from the plants with an air-blast nozzle, and the test units were capped. The test units were then stored 2 to 3 days before spraying.
Test compounds were formulated and sprayed at 250 and 50 ppm. After spraying, the test units were maintained in a growth chamber for 12 days at 23° C. and 70% relative humidity. Each test unit was then visually assessed for insect mortality.

[4] = tested on: cotton melon aphid (Aphis gossypii (Glover)); experiment: Test E: control of cotton melon aphid on sprayed okra plant; conditions: 144 h, pre-infested, 6 days; for mortality at 50 ppm: sprayed at 50 ppm; for mortality at 2 ppm: sprayed at 2 ppm; for mortality at 250 ppm: sprayed at 250 ppm
Description: as §1
For evaluating control of cotton melon aphid (Aphis gossypii (Glover)) through contact and/or systemic means, the test unit consisted of a small open container with a 5-day-old okra plant inside. This was pre-infested with 30-40 insects on a piece of leaf according to the cut-leaf method, and the soil of the test unit was covered with a layer of sand.
Test compounds were formulated and sprayed at 250, 50, 10 and 2 ppm. After spraying, the test units were maintained in a growth chamber for 6 days at 19° C. and 70% relative humidity. Each test unit was then visually assessed for insect mortality.

[5] = tested on: Corn Planthopper (Peregrinus maidis (Ashmead)); experiment: Test B: control of Corn Planthopper on sprayed corn plant; conditions: 144 h, nymphs, 6 days; for mortality at 10 ppm: sprayed at 10 ppm; for mortality at 50 ppm: sprayed at 50 ppm; for mortality at 250 ppm: sprayed at 250 ppm
Description: as §1
For evaluating control of Corn Planthopper (Peregrinus maidis (Ashmead)) through contact and/or systemic means, the test unit consisted of a small open container with a 3-4-day-old corn (maize) plant inside. White sand was added to the top of the soil prior to application of the test compound.
Test compounds were formulated and sprayed at 250, 50 and 10 ppm. After spraying of the formulated test compound, the test units were allowed to dry for 1 h before they were post-infested with ˜15-20 nymphs (18-to-21-day-old). A black, screened cap was placed on the top of each test unit, and the test units were held for 6 days in a growth chamber at 22-24° C. and 50-70% relative humidity. Each test unit was then visually assessed for insect mortality.

[6] = tested on: Potato Leafhopper (Empoasca fabae (Harris)); experiment: Test C: control of Potato Leafhopper on sprayed bean plant; conditions: 144 h, adults, 6 days; for mortality at 250 ppm: sprayed at 250 ppm
Description: as §1
For evaluating control of Potato Leafhopper (Empoasca fabae (Harris)) through contact and/or systemic means, the test unit consisted of a small open container with a 5-6-day-old bean plant inside. White sand was added to the top of the soil, and one of the primary leaves was excised prior to application of the test compound.
Test compounds were formulated and sprayed at 250 and 50 ppm. After spraying of the formulated test compound, the test units were allowed to dry for 1 hour before they were post-infested with 5 potato leafhoppers (18-to-21-day-old adults). A black, screened cap was placed on the top of the test unit, and the test units were held for 6 days in a growth chamber at 20° C. and 70% relative humidity. Each test unit was then visually assessed for insect mortality.

In the case of `CCC#CCn1cc(-c2ccc(C)cc2)nn1` [Compound 18], the mortality [1] was “at least 50%”.
`CCC#CCn1nnc(-c2ccc(F)cc2)n1` [Compound 41, 5-(4-fluorophenyl)-2-(2-pentyn-1-yl)-2H-tetrazole] showed a mortality at 250 ppm [2] of no less than 80%, a mortality at 250 ppm [3] of no less than 50% and a mortality at 50 ppm [4] of no less than 80%. It also gave a mortality at 10 ppm [5] of no less than 80%.
`CCC#CCn1nnc(-c2cc(F)cc(F)c2)n1` [Compound 65, 5-(3,5-difluorophenyl)-2-(2-pentyn-1-yl)-2H-tetrazole] was tested, and the mortality at 50 ppm [2] was no less than 80%, the mortality at 250 ppm [3] was no less than 50% and the mortality at 2 ppm [4] was no less than 80%. For the same compound, the mortality at 50 ppm [5] was no less than 80%.
Work on `CCC#CCn1ncc(-c2ccc(C(F)(F)F)cc2)n1` [Compound 103, 2-(2-Pentyn-1-yl)-4-[4-(trifluoromethyl)phenyl]-2H-1,2,3-triazole] yielded a mortality at 250 ppm [2] of no less than 80%, a mortality at 250 ppm [3] of no less than 50% and a mortality at 250 ppm [6] of no less than 80%. It also gave a mortality at 50 ppm [4] of no less than 80% and a mortality at 50 ppm [5] of no less than 80%.
`CC(C)C#CCn1ncc(-c2ccc(C(F)(F)F)cc2)n1` [Compound 139] was tested, and the mortality at 250 ppm [6] was no less than 80%, the mortality at 250 ppm [4] was no less than 80% and the mortality at 250 ppm [5] was no less than 80%.
`CCC#CCn1ncc(-c2cncc(F)c2)n1` [Compound 155] gave a mortality at 250 ppm [2] of no less than 80%, a mortality at 250 ppm [6] of no less than 80% and a mortality at 50 ppm [4] of no less than 80%. For the same compound, the mortality at 50 ppm [5] was no less than 80%.
Work on `CCC#CCn1ncc(-c2ccc(Cl)nc2)n1` [Compound 157] yielded a mortality at 250 ppm [2] of no less than 80%, a mortality at 250 ppm [3] of no less than 50% and a mortality at 50 ppm [4] of no less than 80%. For the same compound, the mortality at 50 ppm [5] was no less than 80%.
Compound `CCC#CCn1cc(-c2ccc(F)nc2)nn1` [Compound 158] has a mortality at 50 ppm ([6]; sprayed at 50 ppm) of no less than 80% and a mortality at 250 ppm [4] of no less than 80%.
In the case of `CCC#CCn1ncc(-c2ccc(F)nc2)n1` [Compound 159, 2-Fluoro-5-[2-(2-pentyn-1-yl)-2H-1,2,3-triazol-4-yl]pyridine], the mortality at 250 ppm [6] was no less than 80%, the mortality at 50 ppm [4] was no less than 80% and the mortality at 50 ppm [5] was no less than 80%.
With `CCC#CCn1nnc(-c2ccc(Br)c(Cl)c2)n1` [Compound 164, 5-(4-Bromo-3-chlorophenyl)-2-(2-pentyn-1-yl)-2H-tetrazole] the mortality at 250 ppm [2] was no less than 80%, the mortality at 50 ppm [3] was no less than 50% and the mortality at 50 ppm [4] was no less than 80%. For the same compound, the mortality at 250 ppm [5] was no less than 80%.
Compound `CCC#CCn1nnc(-c2ccc3occc3c2)n1` [Compound 193, 5-(5-Benzofuranyl)-2-(2-pentyn-1-yl)-2H-tetrazole] has a mortality at 250 ppm [2] of no less than 80%, a mortality at 250 ppm [3] of no less than 50% and a mortality at 50 ppm [4] of no less than 80%. For the same compound, the mortality at 50 ppm [5] was no less than 80%.
In the case of `CCC#CCn1nnc(-n2cc(Cl)cn2)n1` [Compound 306], the mortality at 250 ppm [2] was no less than 80%, the mortality at 250 ppm [3] was no less than 50% and the mortality at 50 ppm [4] was no less than 80%. The mortality at 250 ppm [5] was no less than 80%.
`CCC#CCn1nnc(-c2ccc(Cl)c(F)c2)n1` [Compound 308, 5-(4-Chloro-3-fluorophenyl)-2-(2-pentyn-1-yl)-2H-tetrazole] was tested, and the mortality at 50 ppm [2] was no less than 80%, the mortality at 50 ppm [3] was no less than 50% and the mortality at 10 ppm ([4]; sprayed at 10 ppm) was no less than 80%. For the same compound, the mortality at 250 ppm [5] was no less than 80%.
For `CCC#CCn1nnc(-c2cc(F)c(F)c(F)c2)n1` [Compound 313, 2-(2-Pentyn-1-yl)-5-(3,4,5-trifluorophenyl)-2H-tetrazole], the mortality at 50 ppm [2] was no less than 80%, the mortality at 250 ppm [3] was no less than 50% and the mortality at 2 ppm [4] was no less than 80%. It also gave a mortality at 10 ppm [5] of no less than 80%.
`CCC#CCn1nnc(-c2ccc(C(F)(F)F)c(Br)c2)n1` [Compound 325, 5-[3-Bromo-4-(trifluoromethyl)phenyl]-2-(2-pentyn-1-yl)-2H-tetrazole] showed a mortality at 50 ppm [2] of no less than 80%, a mortality at 50 ppm [3] of no less than 50% and a mortality at 50 ppm [4] of no less than 80%. It also gave a mortality at 250 ppm [5] of no less than 80%.
